# Source: patent publication US10154990B2, “Medicaments for the treatment or prevention of fibrotic diseases” (Boehringer Ingelheim International GmbH, priority 2004, dated 2018)
# Counter-ions that a name gives are not always drawn.
row,SMILES,melting point [°C]
1,"COC(=O)c1ccc2c(c1)NC(=O)/C2=C(\Nc1ccc(NC(=O)CN2CCN(C)CC2)c(C)c1C)c1ccccc1 [(ae), 3-Z-[1-(2,3-dimethyl-4-(N-((4-methyl-piperazin-1-yl)-methylcarbonyl)-amino)-anilino)-1-phenyl-methylene]-6-methoxycarbonyl-2-indolinone]",254 to 257
2,"CCNC(=O)c1ccc2c(c1)NC(=O)/C2=C(\Nc1ccc(N(CCN(C)C)S(C)(=O)=O)cc1)c1ccccc1 [(bw), 3-Z-[1-(4-(N-(2-dimethylamino-ethyl)-N-methylsulphonyl-amino)-anilino)-1-phenyl-methylene]-6-ethylcarbamoyl-2-indolinone]",213 to 217
3,"CCNC(=O)c1ccc2c(c1)NC(=O)/C2=C(\Nc1ccc(N(CCN(C)C)C(C)=O)cc1)c1ccccc1 [(ca), 3-Z-[1-(4-(N-(2-dimethylamino-ethyl)-N-acetyl-amino)-anilino)-1-phenyl-methylene]-6-ethylcarbamoyl-2-indolinone]",266 to 270
4,"NC(CCO)(CCO)c1ccc(N/C(=C2\C(=O)Nc3cc(C(=O)O)ccc32)c2ccccc2)cc1 (as salt: Na) [(aq), 3-Z-[1-(4-(di-(2-hydroxy-ethyl)-amino-methyl)-anilino)-1-phenyl-methylene]-6-carboxy-2-indolinone]",256 to 257
5,"CN(C(=O)CN1CCOCC1)c1ccc(N/C(=C2\C(=O)Nc3cc(C(=O)O)ccc32)c2ccccc2)cc1 [(as), 3-Z-[1-(4-(N-(morpholin-4-yl-methylcarbonyl)-N-methyl-amino)-anilino)-1-phenyl-methylene]-6-carboxy-2-indolinone]",237 to 238
6,"COC(=O)c1ccc2c(c1)NC(=O)/C2=C(\Nc1ccc(N(C)C(=O)CN(C)C)c(OC)c1)c1ccccc1 [(w), 3-Z-[1-(3-methoxy-4-(N-dimethylaminomethylcarbonyl-N-methyl-amino)-anilino)-1-phenyl-methylene]-6-methoxycarbonyl-2-indolinone]",160 to 163
7,"CCNC(=O)c1ccc2c(c1)NC(=O)/C2=C(\Nc1ccc(N(CCCN(C)C)C(C)=O)cc1)c1ccccc1 [(cb), 3-Z-[1-(4-(N-(3-dimethylamino-propyl)-N-acetyl-amino)-anilino)-1-phenyl-methylene]-6-ethylcarbamoyl-2-indolinone]",198 to 202
8,"CN(C)CCN(C)CC(=O)N(C)c1ccc(N/C(=C2\C(=O)Nc3cc(C(=O)O)ccc32)c2ccccc2)cc1 [(at), 3-Z-[1-(4-(N—(N-(2-dimethylamino-ethyl)-N-methyl-aminomethylcarbonyl)-N-methyl-amino)-anilino)-1-phenyl-methylene]-6-carboxy-2-indolinone]",238 to 240
9,"CCNC(=O)c1ccc2c(c1)NC(=O)/C2=C(\Nc1ccc(OCCN(C)C)cc1)c1ccccc1 [(bu), 3-Z-[1-(4-(2-dimethylamino-ethoxy)-anilino)-1-phenyl-methylene]-6-ethylcarbamoyl-2-indolinone]",308 to 311
10,"CCN(CC)C(=O)c1ccc2c(c1)NC(=O)/C2=C(\Nc1ccc(N(C)C(=O)CN2CCN(C)CC2)cc1)c1ccccc1 [(ci), 3-Z-[1-(4-(N-((4-methyl-piperazin-1-yl)-methylcarbonyl)-N-methyl-amino)-anilino)-1-phenyl-methylene]-6-diethylcarbamoyl-2-indolinone]",195 to 198
11,"CCNC(=O)c1ccc2c(c1)NC(=O)/C2=C(\Nc1ccc(N(C)C(=O)CN(C)C)cc1)c1ccccc1 [(by), 3-Z-[1-(4-(N-dimethylaminomethylcarbonyl-N-methyl-amino)-anilino)-1-phenyl-methylene]-6-ethylcarbamoyl-2-indolinone]",130 to 134
12,"COC(=O)c1ccc2c(c1)NC(=O)/C2=C(\Nc1ccc(-c2nccn2C)cc1)c1cccc(CCC(=O)O)c1 [(ay), 3-Z-[1-(4-(1-methyl-imidazol-2-yl)-anilino)-1-(3-(2-carboxy-ethyl)-phenyl)-methylene]-6-methoxycarbonyl-2-indolinone]",184 to 190
13,"COC(=O)c1ccc2c(c1)NC(=O)/C2=C(\Nc1ccc(N(C)C(=O)N2CCN(C)CC2)cc1)c1ccccc1 [(ag), 3-Z-[1-(4-(N-((4-methyl-piperazin-1-yl)-carbonyl)-N-methyl-amino)-anilino)-1-phenyl-methylene]-6-methoxycarbonyl-2-indolinone]",205 to 208
14,"CCNC(=O)c1ccc2c(c1)NC(=O)/C2=C(\Nc1ccc(N(CCCN(C)C)S(C)(=O)=O)cc1)c1ccccc1 [(cn), 3-Z-[1-(4-(N-(3-dimethylamino-propyl)-N-methylsulphonyl-amino)-anilino)-1-phenyl-methylene]-6-ethylcarbamoyl-2-indolinone]",171 to 175
15,"COC(=O)c1ccc2c(c1)NC(=O)/C2=C(\Nc1ccc(N(C)C(=O)NCCCN(C)C)cc1)c1ccccc1 [(ai), 3-Z-[1-(4-(N-((3-dimethylamino-propyl)-aminocarbonyl)-N-methyl-amino)-anilino)-1-phenyl-methylene]-6-methoxycarbonyl-2-indolinone]",166 to 170
16,"COC(=O)c1ccc2c(c1)NC(=O)/C2=C(\Nc1ccc(N(C)C(=O)CN)cc1)c1ccccc1 [(x), 3-Z-[1-(4-(N-aminomethylcarbonyl-N-methyl-amino)-anilino)-1-phenyl-methylene]-6-methoxycarbonyl-2-indolinone]",221
17,"CCNC(=O)c1ccc2c(c1)NC(=O)/C2=C(\Nc1ccc(N(C)C(=O)CN2CCN(C)CC2)cc1)c1ccccc1 [(bv), 3-Z-[1-(4-(N-((4-methyl-piperazin-1-yl)-methylcarbonyl)-N-methyl-amino)-anilino)-1-phenyl-methylene]-6-ethylcarbamoyl-2-indolinone]",279 to 283
18,"COC(=O)c1ccc2c(c1)NC(=O)/C2=C(\Nc1ccc(CN(C)C)cc1)c1cccc(CCC(=O)O)c1 [(aw), 3-Z-[1-(4-dimethylaminomethyl-anilino)-1-(3-(2-carboxy-ethyl)-phenyl)-methylene]-6-methoxycarbonyl-2-indolinone]",163 to 167
19,"COC(=O)c1ccc2c(c1)NC(=O)/C2=C(\Nc1ccc(CCN(C)C)cc1)c1cccc(CCC(=O)O)c1 [(ax), 3-Z-[1-(4-(2-dimethylamino-ethyl)-anilino)-1-(3-(2-carboxy-ethyl)-phenyl)-methylene]-6-methoxycarbonyl-2-indolinone]",248 to 255
20,"COC(=O)c1ccc2c(c1)NC(=O)/C2=C(\Nc1ccc(N(C)C(=O)CC2CCN(C)CC2)cc1)c1ccccc1 [(ad), 3-Z-[1-(4-(N-((1-methyl-piperidin-4-yl)-methylcarbonyl)-N-methyl-amino)-anilino)-1-phenyl-methylene]-6-methoxycarbonyl-2-indolinone]",190 to 193
21,"CCNC(=O)c1ccc2c(c1)NC(=O)/C2=C(\Nc1ccc(C(=O)N2C[C@@H](C)N[C@@H](C)C2)cc1)c1ccccc1 [(cm), 3-Z-[1-(4-((cis-3,5-dimethyl-piperazin-1-yl)-carbonyl)-anilino)-1-phenyl-methylene]-6-ethylcarbamoyl-2-indolinone]",217 to 220
22,"COC(=O)c1ccc2c(c1)NC(=O)/C2=C(\Nc1ccc(N(C)C(=O)C(N)(CCO)CCO)cc1)c1ccccc1 [(z), 3-Z-[1-(4-(N-(di-(2-hydroxy-ethyl)-amino-methylcarbonyl)-N-methyl-amino)-anilino)-1-phenyl-methylene]-6-methoxycarbonyl-2-indolinone]",199 to 202

# Results, then the compound that gave them:
row,melting point [°C],SMILES
1,288 to 292,"CCNC(=O)c1ccc2c(c1)NC(=O)/C2=C(\Nc1ccc(C(=O)N2CCN(C)CC2)cc1)c1ccccc1 [(cf), 3-Z-[1-(4-((4-methyl-piperazin-1-yl)-carbonyl)-anilino)-1-phenyl-methylene]-6-ethylcarbamoyl-2-indolinone]"
2,335,"O=C1Nc2cc(C(=O)O)ccc2/C1=C(/Nc1ccc(CN2CCOCC2)cc1)c1ccccc1 [(ao), 3-Z-[1-(4-(morpholin-4-yl-methyl)-anilino)-1-phenyl-methylene]-6-carboxy-2-indolinone]"
3,245 to 248,"CCNC(=O)c1ccc2c(c1)NC(=O)/C2=C\Nc1ccc(CN2CCCCC2)cc1 [(ct), 3-Z-[1-(4-(piperidin-1-yl-methyl)-anilino)-methylene]-6-ethylcarbamoyl-2-indolinone]"
4,127 to 130,"CCNC(=O)c1ccc2c(c1)NC(=O)/C2=C(\Nc1ccc(C(=O)N2CCN(CC)CC2)cc1)c1ccccc1 [(ck), 3-Z-[1-(4-((4-ethyl-piperazin-1-yl)-carbonyl)-anilino)-1-phenyl-methylene]-6-ethylcarbamoyl-2-indolinone]"
5,234 to 238,"COC(=O)c1ccc2c(c1)NC(=O)/C2=C\Nc1ccc(CN(C)C)cc1 [(cp), 3-Z-[1-(4-dimethylaminomethyl-anilino)-methylene]-6-methoxycarbonyl-2-indolinone]"
6,341 to 344,"CCNC(=O)c1ccc2c(c1)NC(=O)/C2=C(\Nc1ccc(CN(C)C)cc1)c1ccccc1 [(bz), 3-Z-[1-(4-dimethylaminomethyl-anilino)-1-phenyl-methylene]-6-ethylcarbamoyl-2-indolinone]"
7,275,"CN1CCN(Cc2ccc(N/C(=C3\C(=O)Nc4cc(C(=O)O)ccc43)c3ccccc3)cc2)CC1 [(am), 3-Z-[1-(4-(4-methylpiperazin-1-yl-methyl)-anilino)-1-phenyl-methylene]-6-carboxy-2-indolinone]"
8,250 to 255,"COC(=O)c1ccc2c(c1)NC(=O)/C2=C\Nc1ccc(N(C)C(=O)CN(C)C)cc1 [(co), 3-Z-[1-(4-(N-dimethylaminomethylcarbonyl-N-methyl-amino)-anilino)-methylene]-6-methoxycarbonyl-2-indolinone]"
9,130,"CCNC(=O)c1ccc2c(c1)NC(=O)/C2=C\Nc1ccc(N(CCCN(C)C)C(C)=O)cc1 [(cu), 3-Z-[1-(4-(N-(3-dimethylamino-propyl)-N-acetyl-amino)-anilino)-methylene]-6-ethylcarbamoyl-2-indolinone]"
10,203 to 207,"COC(=O)c1ccc2c(c1)NC(=O)/C2=C\Nc1ccc(N(C)C(=O)CN2CCN(C)CC2)cc1 [(cq), 3-Z-[1-(4-(N-((4-methyl-piperazin-1-yl)-methylcarbonyl)-N-methyl-amino)-anilino)-methylene]-6-methoxycarbonyl-2-indolinone]"
